Consider three compounds from patent publication US8648105B2, “Diarylthiohydantoin compounds” (The Regents of the University of California, priority 2006, dated 2014).

In data set [1] the test system is hormone refractory LAPC4 xenograft. The experiment in a line: Hormone refractory LAPC4 xenograft model. Type of data set: in vivo, mice. How it is done: Compounds of the invention are also tested in another xenograft model of hormone refractory prostate cancer, hormone refractory LAPC4. This model was established from passaging of hormone sensitive prostate cancer in castrated mice, which mimics the clinical progression of prostate cancer (2). […].

Data set [2] has as its system AR-overexpressed LNCaP xenograft tumors. The experiment in a line: AR-overexpressed LNCaP xenograft model in castrated SCID mice. The class given is in vivo. The method, then:
FIG. 7 is a graph of tumor size. AR overexpressing LNCaP cells were injected in the flanks of castrated SCID mice, subcutaneously. When tumors reached about 100 cubic mm, they were randomized into five groups. Each group had nine animals. […]. The tumors were measured three-dimensionally, width, length and depth, using a caliper.
FIG. 8 depicts experimental results of tumor size. At day 18, the animals were imaged via an optical CCD camera, 3 hours after last dose of treatment. A ROI was drawn over the tumor for luciferase activity measurement in photon/second. The right panels is a representation of the ROIs measurements.
Compounds of the invention are used to examine if the diaryihydantoin derivatives have in vivo effects on hormone refractory prostate cancer. First we examine this compound on xenograft tumors established from AR-overexpressed LNCaP cells. Engineered cells in Matrigel (Collaborative Biomedical) are injected subcutaneously into the flanks of the castrated male SCID mice. Tumor size is measured weekly in three dimensions using calipers. After xenograft tumors established (tumor size at least 40 mm^3), mice with tumors are randomized and treated with different doses of compounds orally once daily. The inhibitory effect on growth of AR-overexpressed LNCaP xenograft model is studied as follows. Mice with established LN-AR xenograft tumors are randomized and treated with indicated compounds orally once daily. Tumor size are measured by caliber.
All animal experiments were performed in compliance with the guidelines of the Animal Research Committee of the University of California at Los Angeles. Animals were bought from Taconic and maintained in a laminar flow tower in a defined flora colony. LNCaP-AR and LNCaP-vector cells were maintained in RPMI medium supplemented with 10% FBS. 10^6 cells in 100 μl of 1:1 Matrigel to RPMI medium were injected subcutaneously into the flanks of intact or castrated male SCID mice. Tumor size was measured weekly in three dimensions (length×width×depth) using calipers. Mice were randomized to treatment groups when tumor size reached approximately 100 mm^3. Drugs were given orally every day at 10 mg/kg and 50 mg/kg. To obtain pharmacodynamic readout, the animals were imaged via an optical CCD camera, 3 hours after last dose of the treatment. A ROI is drawn over the tumor for luciferase activity measurement in photon/second. The right panels were a representation of the ROIs measurements. […]

For data set [3], the system named is urogenital tract. The experiment in a line: Luciferase transgenic mice with testosterone pellet, urogenital tract weight and photon emission (FIG. 22). Type of data set: in vivo. The settings on record: castrated mice with testosterone pellet, 10 mg/kg per day, 14 days. How it is done: FIG. 22 presents results of an experiment conducted with wild type nontransgenic mice (WT), castrated luciferase transgenic mice (Cast), and non-castrated luciferase transgenic mice (Intact). Data are shown for castrated luciferase transgenic mice treated with an implanted testosterone pellet yielding 12.5 mg per kilogram body weight with a 90 day release period (T/Cast), and data are shown for non-castrated luciferase transgenic mice treated with an implanted testosterone pellet yielding 12.5 mg per kilogram body weight with a 90 day release period (Intact+T). […]. (A) Urogenital tract weight at 14 days. (B) Photon emission rate at 14 days. In all cases, a hormone refractory disease state was not induced.
[…]. Moreover, the higher the dose, the lower the PSA level. […]. The weight and rate of photon emission increased for both intact and castrated mice.

The nature of data set [4]: LogP. The class given is physicochemical.
Data set [5] concerns LNCaP hormone sensitive xenograft. The experiment in a line: LNCaP hormone sensitive xenograft model.
Method: Each set included 6 mice. The mice were treated with 10 mg/kg per day.
Data set [6] concerns the target T1, AR (Homo sapiens, UniProt P10275).
T1 sequence (P10275 1-920): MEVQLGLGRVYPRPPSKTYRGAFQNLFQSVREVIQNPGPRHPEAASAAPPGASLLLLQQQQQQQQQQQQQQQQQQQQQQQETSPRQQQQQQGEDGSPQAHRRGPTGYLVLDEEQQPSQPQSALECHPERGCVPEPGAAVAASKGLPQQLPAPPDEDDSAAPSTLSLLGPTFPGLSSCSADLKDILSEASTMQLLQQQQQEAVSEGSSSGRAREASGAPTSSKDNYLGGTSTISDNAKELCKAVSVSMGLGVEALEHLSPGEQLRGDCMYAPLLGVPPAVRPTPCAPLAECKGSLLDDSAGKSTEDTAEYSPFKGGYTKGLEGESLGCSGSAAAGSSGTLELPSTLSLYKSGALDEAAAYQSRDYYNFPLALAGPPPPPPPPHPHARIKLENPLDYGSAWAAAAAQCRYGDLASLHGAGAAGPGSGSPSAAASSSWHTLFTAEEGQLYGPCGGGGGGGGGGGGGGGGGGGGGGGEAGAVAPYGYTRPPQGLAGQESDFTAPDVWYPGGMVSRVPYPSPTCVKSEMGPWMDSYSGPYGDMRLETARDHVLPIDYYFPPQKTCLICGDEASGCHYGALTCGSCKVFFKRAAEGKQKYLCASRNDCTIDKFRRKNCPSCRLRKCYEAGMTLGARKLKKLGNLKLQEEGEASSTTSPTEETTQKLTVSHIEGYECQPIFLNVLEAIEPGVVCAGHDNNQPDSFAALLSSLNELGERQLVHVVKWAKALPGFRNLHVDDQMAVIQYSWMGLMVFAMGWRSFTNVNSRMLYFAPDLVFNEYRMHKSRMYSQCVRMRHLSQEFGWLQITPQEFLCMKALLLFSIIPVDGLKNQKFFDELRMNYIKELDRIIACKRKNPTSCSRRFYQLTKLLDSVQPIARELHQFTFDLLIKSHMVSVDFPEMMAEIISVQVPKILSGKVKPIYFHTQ
Type of data set: cell-based. Details: Fold induction, AR response reporter. How it is done: It is well established that PSA levels are indicators of AR activities in prostate cancer. […] The LNCaP-AR cells are a line of lymph node carcinoma of prostate cells transduced with a plasmid that makes express androgen receptors. […] After four days incubation, secreted PSA levels were assayed using PSA ELISA kits (American Qualex, San Clemente, Calif.)

Data set [7] relates to AR. The class given is cell-based. The settings on record: FIG. 24. The method, then: The compounds were subjected to tests using an artificial AR response reporter system in a hormone refractory prostate cancer cell line. […] After two days of incubation, reporter activities were assayed.
For data set [8], the target named is T1, AR. Type of data set: cell-based. Details: Fold induction, AR response reporter. The settings on record: AR over expressed LNCaP, absence of R1881.
The subject of data set [9] is DU-145 cells. The experiment in a line: MTS growth assay in DU-145 cells. The class given is cell-based. The settings on record: DU-145, lacks AR expression. (Formazan colour is commonly taken as a measure of viable cells.)
The test system of data set [10] is MCF7. The experiment in a line: Growth effect on MCF7 cells. Type of data set: cell-based. The settings on record: MCF7 breast cancer cells.
The target of data set [11] is T2, glucocorticoid receptor (GR) (Homo sapiens, UniProt P04150).
T2 construct: expressed in transfected cells; host or cells: LNCaP cells
T2 sequence (P04150 1-777): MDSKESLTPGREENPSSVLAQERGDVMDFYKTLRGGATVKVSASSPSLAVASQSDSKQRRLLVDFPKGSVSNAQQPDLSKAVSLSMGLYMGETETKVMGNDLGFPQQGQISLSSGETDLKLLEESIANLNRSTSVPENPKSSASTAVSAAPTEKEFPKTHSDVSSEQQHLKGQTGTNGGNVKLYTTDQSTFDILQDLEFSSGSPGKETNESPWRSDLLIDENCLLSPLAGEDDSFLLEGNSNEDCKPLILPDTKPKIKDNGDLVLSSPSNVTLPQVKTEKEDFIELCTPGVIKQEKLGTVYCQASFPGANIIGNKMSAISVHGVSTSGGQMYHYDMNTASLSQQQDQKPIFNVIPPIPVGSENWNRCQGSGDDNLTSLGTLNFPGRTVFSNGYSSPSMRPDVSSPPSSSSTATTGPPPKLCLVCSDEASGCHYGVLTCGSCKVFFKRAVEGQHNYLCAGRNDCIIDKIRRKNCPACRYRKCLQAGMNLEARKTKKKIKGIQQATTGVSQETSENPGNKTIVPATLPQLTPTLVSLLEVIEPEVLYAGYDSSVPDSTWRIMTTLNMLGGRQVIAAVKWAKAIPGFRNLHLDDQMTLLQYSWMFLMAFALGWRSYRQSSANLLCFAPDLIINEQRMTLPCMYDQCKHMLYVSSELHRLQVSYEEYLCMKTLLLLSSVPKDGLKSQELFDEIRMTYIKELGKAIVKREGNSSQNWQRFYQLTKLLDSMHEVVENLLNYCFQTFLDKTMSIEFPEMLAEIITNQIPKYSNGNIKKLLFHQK
The experiment in a line: GR response reporter in LNCaP cells over expressing glucocorticoid receptor. The class given is cell-based.

A short description of data set [12]: Pharmacokinetics, drug concentration in mouse serum/plasma by HPLC. The settings on record: in vivo.
Method: Mice were divided into groups of three for each time points. Two mice were not treated with drug and two other mice were treated with vehicle solution. Each group was treated with 10 mg per kilogram of body weight.
The drug was dissolved in a mixture 1:5:14 of DMSO:PEG400: H20. (Vehicle solution) and was administered into mice through the tail vein. The animals are warmed under a heat lamp for approximately 20 minutes prior to treatment to dilate their tail vein. […] After drug administration, the animals were euthanized via CO2 inhalation at different timepoints: 5 nm, 30 nm, 2 h, 6 h, 16 h. Animals were immediately bleed after exposure to CO2 via cardiac puncture (1 ml BD syringe+27 G ⅝ needle).
The samples for HPLC analysis were prepared according to the following procedure:
Blood cells were separated from serum by centrifugation.
To 400 μl of serum were added 80 μl of a 10 μM solution of an internal standard and 520 μl of acetonitrile. Precipitation occurred.
The mixture was vortexed for 3 minutes and then placed under ultrasound for 30 minutes.
The solid particles were filtered off or were separated by centrifugation.
The filtrate was dried under an argon flow to dryness.
The test system of data set [13] is SkBr3. The experiment in a line: Growth effect on SkBr3 cells. The class given is cell-based. The settings on record: SkBr3 breast cancer cells.
For data set [14], the target named is T1, AR. The class given is cell-based. Further details: Fold induction, AR response reporter. The settings on record: LN-AR, absence of R1881. The method, then: Activities of AR response reporter were measured.
For data set [15], the system named is 3T3. The experiment in a line: Growth effect on 3T3 cells. The settings on record: 3T3 normal mouse fibroblast cell line. Type of data set: cell-based.
The test system of data set [16] is 4AR cell line. The experiment in a line: Luciferase activity in the 4AR cell line. The class given is cell-based. The settings on record: 1.25 to 10 μmol. From the text:
(§1) NC4 differs from NC3 only in that an amino group is substituted for a hydroxyl group. […] The effect of NC3 and NC4 on luciferase activity in the 1AR cell line was studied by administering various compounds at concentrations ranging from 1.25 to 10 μmol and observing PSA levels. […] The effect of NC3 and NC4 on luciferase activity in the 4AR cell line was studied by administering various compounds at concentrations ranging from 1.25 to 10 μmol and observing luciferase activity. […] The effect of NC3 and NC4 on PSA levels in the LN/AR cell line was studied by administering various compounds at concentrations ranging from 1.25 to 10 μmol and observing luciferase activity.

In data set [17] the test system is 1AR cell line. The experiment in a line: Luciferase activity in the 1AR cell line. Type of data set: cell-based. The settings on record: 1.25 to 10 μmol.
Excerpt: as §1

SMILES strings stand for the structures. “Also recorded” adds a separate entry of the source.

As to `CC(O)(CS(=O)(=O)c1ccc(F)cc1)C(=O)Nc1ccc(C#N)c(C(F)(F)F)c1` (stereo not drawn) [Bicalutamide, N-[4-cyano-3-(trifluoromethyl)phenyl]-3-[(4-fluorophenyl)sulfonyl]-2-hydroxy-2-methylpropanamide, reference compound], the “growth and PSA expression” value in [1] was “did not inhibit growth and PSA expression”. Besides, in data set [2] (FIG. 8, day 18, relative to vehicle), the “photon emission associated with luciferase activity” value was “remained about the same or increased”. For the same compound, in [2] (oral once daily, FIG. 7: 10 or 50 mg/kg, 18 days), the “tumor growth / tumor volume” value was “did not inhibit growth; also recorded: tumors continued to grow”. The “urogenital tract weight and photon emission” value in [3] is “decrease in weight and photon emission”. Moreover, the log partition coefficient (logP) (usually the decadic logarithm of the partition coefficient of the neutral form, usually between octanol and water) in data set [4] is 2.91. Also, the “rate of tumor growth (tumor volume)” value in data set [5] (10 mg/kg per day, FIG. 6) is listed as “slower than mice treated with vehicle solution”. The PSA levels result in [5] (FIG. 16, relative to vehicle solution) is reported as “stayed the same or increased”.

On to `Cc1ccc(N2C(=S)N(c3ccc(C#N)c(C(F)(F)F)c3)C(=O)C23CCC3)cc1` [NC7, 4-(8-oxo-6-thioxo-5-(4-methylphenyl)-5,7-diazaspiro[3.4]oct-7-yl)-2-trifluoromethylbenzonitrile], for which, in data set [6] (500 nM), the “rank by relative PSA level, most active to least active” value was “NC50>NC48>NC7>NC43>NC44>NC49>NC50>NC45>bicalutamide”. For the same compound, in data set [6] (1000 nM), the “decrease in PSA level of LNCaP-AR cells (comparison)” value is “greater decrease in PSA level of LNCaP-AR cells than NC43, NC44, and NC50”. Also, in data set [7], the “IC50 (comparison)” value was “much lower than the IC50 for bicalutamide”. Besides, in [8], the “agonistic activity on secreted PSA” value is reported as “no agonistic activities”. Moreover, the growth inhibitory effect result in data set [9] was “no growth inhibitory effect”. In addition, the growth effect result in data set [10], in data set [13] and in data set [15] was “no growth effect” each time. Also, in [11], the “effect on GR response reporter” value is reported as “no effect on GR”. Also, the “pharmacokinetic behavior, residence time in blood” value in data set [12] is given as “metabolize fast”. Besides, the “agonistic activity on AR response reporter” value in data set [14] is on record as “no agonistic activity”.

With `CC1(C)C(=O)N(c2ccc(C#N)c(C(F)(F)F)c2)C(=S)N1c1ccc(O)cc1` [NC3, 4-[3-(4-hydroxyphenyl)-4,4-dimethyl-5-oxo-2-thioxoimidazolidin-1-yl]-2-trifluoromethylbenzonitrile], the “PSA level (comparison)” value in data set [6] (LN/AR cell line, 1.25 to 10 μmol) is “less than the PSA level upon exposure to NC4”. Further, the “luciferase activity (comparison)” value in data set [16] and in data set [17] was “less than the luciferase activity upon exposure to NC4” throughout.
